In ChEMBL document CHEMBL3997794, “Design and synthesis of benzodiazepine analogs as isoform-selective human lysine deacetylase inhibitors” (Eur J Med Chem, 2017):

Assays:
[1] = target: T1, Histone deacetylase 3 (Homo sapiens, UniProt O15379); assay: Inhibition of human KDAC3 at 30 uM using FITC-labeled p53 acetylated peptide as substrate after 60 mins by fluorescence assay relative to control
[2] = target: T2, Histone deacetylase 8 (Homo sapiens, UniProt Q9BY41); assay: Inhibition of human KDAC8 after 60 mins by fluorescence assay
T2 sequence (Q9BY41 whole entry): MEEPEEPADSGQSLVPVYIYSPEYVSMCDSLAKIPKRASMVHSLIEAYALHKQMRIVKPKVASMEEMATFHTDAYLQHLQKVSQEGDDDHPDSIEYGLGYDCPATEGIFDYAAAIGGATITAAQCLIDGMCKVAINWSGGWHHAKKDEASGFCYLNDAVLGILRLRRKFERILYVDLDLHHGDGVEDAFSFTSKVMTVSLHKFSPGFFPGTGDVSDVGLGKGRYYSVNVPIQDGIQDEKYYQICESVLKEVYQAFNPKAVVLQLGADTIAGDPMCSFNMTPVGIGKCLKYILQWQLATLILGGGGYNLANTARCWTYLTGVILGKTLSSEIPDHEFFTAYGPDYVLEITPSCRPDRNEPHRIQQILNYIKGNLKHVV

[3] = target: T3, Histone deacetylase 1 (Homo sapiens, UniProt Q13547); assay: Inhibition of human KDAC1 at 30 uM using substrate A after 60 mins by fluorescence assay relative to control
[4] = target: T4, Histone deacetylase 8 (Homo sapiens) (UniProt Q9BY41); assay: Inhibition of human KDAC8 at 30 uM after 60 mins by fluorescence assay relative to control
T4 sequence (whole entry): T2 sequence (Q9BY41 whole entry)

[5] = target: T3, Histone deacetylase 1; assay: Inhibition of human KDAC1 using substrate A after 60 mins by fluorescence assay
[6] = target: T5, Protein deacetylase HDAC6 (Homo sapiens) (UniProt Q9UBN7); conditions: at 30 µM
T5 sequence (whole entry): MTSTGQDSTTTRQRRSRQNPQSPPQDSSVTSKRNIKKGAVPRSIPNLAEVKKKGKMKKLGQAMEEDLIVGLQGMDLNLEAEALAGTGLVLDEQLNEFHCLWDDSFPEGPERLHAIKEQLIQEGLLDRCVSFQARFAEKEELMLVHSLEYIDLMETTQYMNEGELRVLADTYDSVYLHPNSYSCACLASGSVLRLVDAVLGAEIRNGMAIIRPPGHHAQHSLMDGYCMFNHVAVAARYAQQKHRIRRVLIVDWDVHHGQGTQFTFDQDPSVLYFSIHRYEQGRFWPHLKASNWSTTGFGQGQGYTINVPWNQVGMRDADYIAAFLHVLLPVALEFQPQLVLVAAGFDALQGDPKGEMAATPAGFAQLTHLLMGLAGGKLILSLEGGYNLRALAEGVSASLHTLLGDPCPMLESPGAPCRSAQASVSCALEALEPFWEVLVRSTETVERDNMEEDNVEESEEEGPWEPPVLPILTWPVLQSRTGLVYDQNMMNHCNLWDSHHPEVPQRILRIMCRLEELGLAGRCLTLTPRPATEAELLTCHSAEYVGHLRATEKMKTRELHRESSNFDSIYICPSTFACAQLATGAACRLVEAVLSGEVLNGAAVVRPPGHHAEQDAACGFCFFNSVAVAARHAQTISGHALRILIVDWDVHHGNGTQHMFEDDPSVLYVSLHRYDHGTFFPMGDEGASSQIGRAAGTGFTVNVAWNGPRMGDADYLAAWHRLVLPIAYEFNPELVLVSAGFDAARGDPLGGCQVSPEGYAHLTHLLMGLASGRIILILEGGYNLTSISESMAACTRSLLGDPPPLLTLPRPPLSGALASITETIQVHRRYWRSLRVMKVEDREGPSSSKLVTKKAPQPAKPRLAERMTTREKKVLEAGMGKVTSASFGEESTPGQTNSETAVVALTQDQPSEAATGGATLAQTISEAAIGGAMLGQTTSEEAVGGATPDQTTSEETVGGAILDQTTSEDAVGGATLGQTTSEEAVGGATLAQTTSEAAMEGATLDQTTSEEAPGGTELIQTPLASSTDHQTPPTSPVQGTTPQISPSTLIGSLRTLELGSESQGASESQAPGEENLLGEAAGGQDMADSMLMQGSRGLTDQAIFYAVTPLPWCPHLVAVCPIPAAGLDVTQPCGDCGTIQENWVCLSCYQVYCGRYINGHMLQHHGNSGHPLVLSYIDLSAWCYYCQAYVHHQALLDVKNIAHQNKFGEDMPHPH
Description: Inhibition of human KDAC6 at 30 uM using FITC-labeled histone H4 acetylated peptide as substrate after 60 mins by fluorescence assay relative to control

[7] = target: T6, Protein deacetylase HDAC6 (Homo sapiens, UniProt Q9UBN7); assay: Inhibition of human KDAC6 using FITC-labeled histone H4 acetylated peptide as substrate after 60 mins by fluorescence assay
T6 sequence (Q9UBN7 whole entry): T5 sequence (whole entry)

[8] = target: T1, Histone deacetylase 3; assay: Inhibition of human KDAC3 using FITC-labeled p53 acetylated peptide as substrate after 60 mins by fluorescence assay

T1 sequence (O15379 whole entry): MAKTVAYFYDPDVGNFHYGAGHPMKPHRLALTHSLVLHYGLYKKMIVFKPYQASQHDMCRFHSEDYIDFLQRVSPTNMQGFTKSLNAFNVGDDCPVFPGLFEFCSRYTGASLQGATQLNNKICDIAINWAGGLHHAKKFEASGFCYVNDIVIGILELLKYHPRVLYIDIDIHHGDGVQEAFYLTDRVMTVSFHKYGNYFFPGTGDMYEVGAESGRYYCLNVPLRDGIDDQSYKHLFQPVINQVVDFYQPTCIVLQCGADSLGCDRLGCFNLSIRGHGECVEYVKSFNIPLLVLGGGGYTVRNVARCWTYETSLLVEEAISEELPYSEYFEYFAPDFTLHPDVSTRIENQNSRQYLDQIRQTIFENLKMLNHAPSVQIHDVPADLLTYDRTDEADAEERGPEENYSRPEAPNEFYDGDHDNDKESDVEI
T3 sequence (Q13547 whole entry): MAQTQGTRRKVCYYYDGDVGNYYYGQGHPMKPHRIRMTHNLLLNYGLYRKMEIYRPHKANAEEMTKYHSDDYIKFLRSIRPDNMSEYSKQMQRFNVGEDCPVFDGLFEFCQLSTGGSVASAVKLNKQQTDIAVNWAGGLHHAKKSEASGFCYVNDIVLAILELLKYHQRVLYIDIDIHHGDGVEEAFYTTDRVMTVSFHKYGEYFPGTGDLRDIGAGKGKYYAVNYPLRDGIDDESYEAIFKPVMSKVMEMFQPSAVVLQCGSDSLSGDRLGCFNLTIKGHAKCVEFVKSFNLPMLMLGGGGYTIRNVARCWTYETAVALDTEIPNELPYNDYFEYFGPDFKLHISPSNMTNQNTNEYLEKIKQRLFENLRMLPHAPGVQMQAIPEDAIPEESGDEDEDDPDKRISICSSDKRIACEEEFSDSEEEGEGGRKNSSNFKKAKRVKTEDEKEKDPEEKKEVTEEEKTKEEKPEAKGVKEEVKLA

| SMILES | inhibition [1] [%] | IC50 [2] [µM] | inhibition [3] [%] | inhibition [4] [%] | IC50 [5] [µM] | inhibition [6] [%] | IC50 [7] [µM] | IC50 [8] [µM] |
| --- | --- | --- | --- | --- | --- | --- | --- | --- |
| O=C(O)CCCCN1C(=O)[C@H](CCC(=O)NC(c2ccccc2)(c2ccccc2)c2ccccc2)N=C(c2ccccc2)c2ccccc21 | 0 | > 30 | 3.58 | 11 | > 30 |  |  |  |
| CC(C)(C)OC(=O)CC[C@@H]1N=C(c2ccccc2)c2ccccc2N(CCCCC(=O)O)C1=O | 23.9 | > 30 | 7.96 | 9.85 | > 30 | 0 | > 30 | > 30 |
| O=C(O)CC[C@@H]1N=C(c2ccccc2)c2ccccc2N(CCCCC(=O)NO)C1=O | 79.8 | > 30 | 48.1 | 29.7 | > 30 |  |  | 8.71 |
| O=C(O)C[C@@H]1N=C(c2ccccc2)c2ccccc2N(CCCCC(=O)NO)C1=O | 75.5 | > 30 | 47.9 | 39.4 | > 30 | 57.8 | 19.8 | 12.6 |
| O=C(O)CCCCN1C(=O)[C@H](CC(=O)NC(c2ccccc2)(c2ccccc2)c2ccccc2)N=C(c2ccccc2)c2ccccc21 | 7.32 | > 30 | 8.49 | 11.4 | > 30 |  |  | > 30 |
| COC(=O)CCCCN1C(=O)[C@H](CCCNC(=N)NS(=O)(=O)c2c(C)c(C)c3c(c2C)CC(C)(C)O3)N=C(c2ccccc2)c2ccccc21 | 3.33 | > 30 | 4.8 | 7.3 | > 30 |  |  | > 30 |
| COC(=O)CCCCN1C(=O)[C@H](CCC(=O)NC(c2ccccc2)(c2ccccc2)c2ccccc2)N=C(c2ccccc2)c2ccccc21 | 0 | > 30 | 7.24 | 0 | > 30 |  |  | > 30 |
| O=C(CCCCN1C(=O)[C@H](CCC(=O)NO)N=C(c2ccccc2)c2ccccc21)NO | 92.2 | 8.52 | 62.5 | 74.7 | 15 |  |  | 2.57 |
| O=C(CCCCN1C(=O)[C@H](CCC(=O)NC(c2ccccc2)(c2ccccc2)c2ccccc2)N=C(c2ccccc2)c2ccccc21)NO | 99.1 | 23.5 | 78.7 | 53.1 | 9.24 |  |  | 0.83 |
| Cc1c(C)c(S(=O)(=O)NC(=N)NCCC[C@@H]2N=C(c3ccccc3)c3ccccc3N(CCCCC(=O)O)C2=O)c(C)c2c1OC(C)(C)C2 | 3.8 | > 30 | 4.96 | 10.2 | > 30 |  |  | > 30 |
| O=C(CCCCN1C(=O)[C@H](CC(=O)NC(c2ccccc2)(c2ccccc2)c2ccccc2)N=C(c2ccccc2)c2ccccc21)NO | 89.5 | > 30 | 43.1 | 43.9 | > 30 |  |  | 4.31 |
| COC(=O)CCCCN1C(=O)[C@H](CC(=O)NC(c2ccccc2)(c2ccccc2)c2ccccc2)N=C(c2ccccc2)c2ccccc21 | 5.6 | > 30 | 8.7 | 3.62 | > 30 |  |  | > 30 |
| O=C(O)CCCCN1C(=O)[C@H](CCC(=O)O)N=C(c2ccccc2)c2ccccc21 | 1.47 | > 30 | 13.6 | 6.92 | > 30 |  |  | > 30 |
